From US20250057808A1, “COMPOSITION COMPRISING BETA LACTAM FOR TREATING ALCOHOL DEPENDENCE AND ALCOHOL ASSOCIATED DISEASES OR CONDITIONS” (Temple University of the Commonwealth System of Higher …, priority 2023, published 2025) come the findings set out here.

The test system of assay [1] is mGluR1. In words: Western blot mGluR1 expression in NAc-core and NAc-shell. It is filed as in vivo, P rats. As to conditions: MC-100093 50 mg/kg or ceftriaxone 200 mg/kg i.p. 5 days; among all groups. The procedure: We used micro-punch procedure to dissect the subregions of the NAc such as NAc-core and NAc-shell as well as the subregions of prefrontal cortex such as infralimbic (IL) and prelimbic (PL) from the brain on day 6 after the last injection day. P rats were removed from the cage and rapidly euthanized by CO2 inhalation followed by rapid decapitation with a guillotine. Brains were isolated and immediately frozen on dry ice and stored at −80° C. The stereotaxic coordinates provided by Paxinos and colleague's rat brain stereotactic atlas was used to isolate NAc-core and NAc-shell using a cryostat apparatus (−20° C.), which then kept at −80° C. for later western blot analyses.
Western Blot assay was performed to measure changes in the expression of GLT-1, xCT, mGluR1, mGluR5, PPAR-α, PPARγ, GAPDH and β-tubulin in the NAc-core and NAc-shell as described in previous publications. A lysis buffer containing protease and phosphatase inhibitors was used to generate a homogenate of liver, Nac-core, and Nac-shell samples. The amount of protein was quantified using a detergent compatible protein assay (Bio-Rad, Hercules, CA, USA) for each sample. Samples were mixed with laemmli dye and loaded with equal amounts on polyacrylamide gels (10%), which separated the proteins using electrophoresis. After that, polyvinylidene difluoride (PVDF) membranes were used to transfer the proteins electrophoretically from the gels. Membranes were incubated in 5% free-fat milk in Tris-buffered saline with Tween-20 (TBST) for 30-60 minutes at room temperature. Membranes were then incubated with appropriate primary antibodies overnight at 4° C.: rabbit anti-GLT-1 (1:5000, Abcam, ab41621), rabbit anti-xCT (1:2000, Abcam, ab175186), rabbit anti-mGluR1 (1:1000, Abcam, ab82211), rabbit anti-mGluR5 (1:1000, Abcam, ab76316), rabbit anti-PPAR-α (1:1000, Abcam, ab24509), and rabbit anti-PPARγ (1:1000, Abcam, ab209350). Mouse anti-β-tubulin (1:1000; BioLegend) was used as a loading control antibody for the brain samples and rabbit anti-GAPDH (1:5000; cell signaling) was used as a loading control antibody for the liver samples. Membranes were washed five times on the next day with TBST followed by incubation with appropriate secondary antibody (1:5000) for 90 minutes at room temperature. Chemiluminescent reagents (Super Signal West Pico, Pierce Inc.) were used to detect the proteins using a GeneSys imaging system to develop the digitized blot images. Water-control group data were represented as 100% and all other values were expressed relative to control group to detect changes in the expression of the protein of interest in the brain and liver samples.
All statistical analyses were conducted with Graphpad Prism software, with p-values of 0.05 or less being statistically significant. […]
Background: In western blotting, separated proteins are transferred to a membrane and probed.

The test system of assay [2] is RAGE. Kind of assay: Western blot RAGE in subregions of mPFC and NAc. It is filed as in vivo, Male P rats. How it is done: All P rats were euthanized by CO2 inhalation and decapitated with a guillotine 24 hours after the final i.p. injection was administered on Day 6 of Week 6. Brains were removed and immediately frozen on dry ice and stored at −80° C. The mPFC subregions (infralimbic cortex and prelimbic cortex) and NAc subregions (core and shell) were dissected using a cryostat machine kept at −20° C. Surgical blades were used to dissect all brain regions following visualized landmarks using the stereotaxic coordinates provided by Paxinos and colleague's rat brain stereotactic atlas. All brain regions were stored in −80° C. Western Blot analyses.
Western blot was performed to determine the expression of BDNF, TNF-α, RAGE, HMGβ-1, and β-tubulin in the subregions of mPFC and NAc as preformed in previous studies.
Brain samples were lysed with a lysing buffer containing protease inhibitors. The amount of protein in each sample was quantified using a detergent compatible protein assay (Bio-Rad, Hercules, CA, USA). Polyacrylamide gels (10%) were loaded with the lysate mixture, and proteins were separated using gel electrophoresis for 1 hour. Proteins were then transferred from the gels onto Polyvinylidene difluoride (PVDF) membranes (BioRad). After transfer, membranes were incubated for 30 minutes in a mixture of nonfat milk in 1×Tris-buffered saline with Tween-20 (TBST) at room temperature. Membranes were then incubated at 4° C. for 24 hours with primary antibodies: anti-rabbit BDNF (1:1000, Abeam, #ab108319), anti-rabbit TNF-α (1:500, Abeam, #ab9739), anti-rabbit HMGβ-1 (1:500, Abeam, #ab18256), and anti-rabbit RAGE (1:1000, Abeam, #ab37407). Anti-mouse-β-tubulin (1:1000, Cell Signaling Technology, #D71G9) was used as a loading control antibody. After incubating for 24 hours, secondary antibody such as donkey anti-rabbit (1:4000, Invitrogen, #31458) or anti-mouse (1:4000, Cell Signaling, #7076S) was added to the membrane for 1 hour at room temperature. The membranes were then washed with 1×TBST three times for 5 minutes each and then dried. Membranes were then incubated in chemiluminescent reagents (Super Signal West Pico, Pierce Inc.) for 2 minutes. Blot images were developed using ChemiDoc. Imaging System and ImageJ software version 1.53a were used to quantify and analyze the expression of BDNF, TNF-α, RAGE, HMGβ-1, and β-tubulin.
The data for the water/saline control group were expressed as 100% based on the values corresponding to the ethanol/saline and ethanol/MC-100093 groups for each set of blotting. Thus, the expression of selected proteins for each group (ethanol/saline group or ethanol/MC-100093 group) was calculated relative to the water/saline control group being set to 100%.
Statistical analyses were performed using GraphPad Prism Version 10. Two-way repeated measures ANOVA followed by Bonferroni post-hoc tests were used to compare water and ethanol intake, and body weight, amongst water group, ethanol/saline group and ethanol/MC-100093 group. A one-way ANOVA test was performed to compare the expression of the studied proteins in selected brain regions in water/saline, ethanol/saline and ethanol/MC-100093 groups. Statistical significance was determined by a p-value of or less than 0.05.

[3] abbreviates: 100 mg/kg i.p., compared to ethanol/saline group.

SMILES strings stand for the structures. Entries after “also recorded” stand apart in the source; their conditions may differ.

With `C[C@@H](O)[C@H]1C(=O)N[C@@H]1[C@@H](C)C(=O)N1CCN(C)CC1` [MC-100093], in assay [1], the “Protein expression of mGluR1 in the NAc-core” value is listed as “non-significant difference; also recorded: no significant difference” and the “Protein expression of mGluR1 in the NAc-shell” value is listed as “non-significant differences; also recorded: no significant difference”. Besides, in assay [2] (setting [3]), the “Decrease in RAGE expression in the IL” value is given as 14%, the “Decrease in RAGE expression in the NAc core” value was determined as 12%, the “RAGE expression in the NAc shell” value was “decreased RAGE expression” and the “RAGE expression in the PL” value is “decreased RAGE expression”. Moreover, in assay [2] (post-treatment with MC-100093 100 mg/kg i.p., 100 mg/kg), the “RAGE expression in subregions of mPFC and NAc (summary)” value is “normalized RAGE expression; also recorded: attenuated ethanol-induced increase in receptor for advanced glycation end products (RAGE)”.
